From US6737383B1, “Herbicidal oxadiazolidines” (priority 1999, dated 2004)

Legend:
cocklebur = experiment: Test B pre/postemergence cocklebur; format: in vivo, Xanthium strumarium
In short: (§1)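 Herbicidal effect was estimated by eye on a ten-point control scale after plants spent twelve to sixteen days in a greenhouse following soil or foliar treatment. Foliar sprays targeted plants at one to four leaves; all doses were formulated in a non-phytotoxic solvent with surfactant.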

goosegrass = experiment: Test D goosegrass; format: in vivo, Eleusine indica; settings: Preemergence, 0 to 100 scale
In short: (§2)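 Scoring used a 0–100 visual injury scale, with 0 meaning no effect and 100 complete control, assessed 14–21 days after application alongside untreated pots. Preemergence treatments went onto sandy loam surfaces of separately potted seeds within a day of sowing.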

blackgrass = experiment: Test E blackgrass; format: in vivo, Alopecurus myosuroides; settings: Preemergence
winter wheat [1] = experiment: Test E winter wheat; format: in vivo, Triticum aestivum; settings: Preemergence
green foxtail = experiment: Test E green foxtail; format: in vivo, Setaria viridis; settings: Preemergence
purple nutsedge = experiment: Test D purple nutsedge; format: in vivo, Cyperus rotundus; settings: Preemergence, 0 to 100 scale
In short: as §2

Alexandergrass = experiment: Test D Alexandergrass; format: in vivo, Brachiaria plantaginea; settings: Preemergence, 0 to 100 scale
In short: as §2

morningglory = experiment: Test B pre/postemergence morningglory; format: in vivo, Ipomoea hederacea
In short: as §1

tall mallow = experiment: Test D tall mallow; format: in vivo, Malva sylvestris; settings: Preemergence, 0 to 100 scale
In short: as §2

bamyardgrass = experiment: Test B flood test barnyardgrass; format: in vivo, Echinochloa crus-galli
In short: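 Flood test on plants grown to the 2-leaf stage; treated plants kept in greenhouse twelve to sixteen days, then visually rated against controls on a 0 (no effect) to 10 (complete control) scale.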

Italian ryegrass = experiment: Test E Italian ryegrass; format: in vivo, Lolium multiflorum; settings: Preemergence
winter barley = experiment: Test E winter barley; format: in vivo, Hordeum vulgare; settings: Preemergence
wild oat = experiment: Test E wild oat; format: in vivo, Avena fatua; settings: Preemergence
winter wheat [2] = experiment: Test E winter wheat; format: in vivo, Triticum aestivum; settings: Postemergence
In short: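 Each compound, carried in a non-phytotoxic solvent blend including surfactant, was applied (postemergence: over the top of young plants at 1- to 4-leaf stage). Plants stayed in the greenhouse about 21 to 28 days before visual comparison with untreated controls.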

giant foxtail = experiment: Test B pre/postemergence giant foxtail; format: in vivo, Setaria faberii
In short: as §1

[3] = Postemergence, Rate 125 g/ha, scale of 0 to 10 where 0 is no effect and 10 is complete control
[4] = Postemergence, Rate 250 g/ha, scale 0 to 10, 0 no effect, 10 complete control
[5] = Preemergence, Rate 62 g/ha, scale 0 to 10 (0 no effect, 10 complete control)
[6] = Preemergence, Rate 125 g/ha, scale 0 to 10 (0 no effect, 10 complete control)
[7] = Preemergence, Rate 250 g/ha, scale of 0 to 10 where 0 is no effect and 10 is complete control
[8] = Rate 62 g/ha, Postemergence, scale of 0 to 10 where 0 is no effect and 10 is complete control
[9] = Rate 500 g/ha, Postemergence, scale 0 to 10, 0 no effect, 10 complete control
[10] = Rate 16 g/ha, 0 no injury, 100 complete control
[11] = Rate 32 g/ha, 0 no injury, 100 complete control
[12] = Rate 64 g/ha, 0 no injury, 100 complete control
[13] = Rate 125 g/ha, 0 no injury, 100 complete control
[14] = Rate 62 g/ha, 0 to 100 scale, 0 no effect, 100 complete control
[15] = Rate 125 g/ha, 0 to 100 scale (0 no effect, 100 complete control)
[16] = Preemergence, Rate 500 g/ha, scale 0 to 10 (0 no effect, 10 complete control)

CCCn1c(=O)on(C(=O)N(c2ccc(Cl)cc2)C(C)C)c1=O [Compound 119]
7: Morningglory plant response rating (morningglory; [3]) | Morningglory plant response rating (morningglory; [4])
60: Plant response rating, Green foxtail (green foxtail; Rate 250 g/ha, 0 to 100 scale) | Plant response rating, I. Ryegrass (Italian ryegrass; Rate 250 g/ha, 0 to 100 scale)
85: Plant response rating, Goosegrass (goosegrass; [11])
10: Plant response rating, Blackgrass (blackgrass; [15]) | Plant response rating, Green foxtail (green foxtail; [14]) | Plant response rating, I. Ryegrass (Italian ryegrass; [14]) | Plant response rating, Barley (winter) (winter barley; [15]) | Plant response rating, Barley (winter) (winter barley; Rate 250 g/ha, 0 to 100 scale) | Plant response rating, Wild oat (wild oat; [15]) | Plant response rating, Wheat (winter) (winter wheat [2]; Rate 62 g/ha, 0 to 100 scale) | Plant response rating, Wheat (winter) (winter wheat [2]; Rate 125 g/ha, 0 to 100 scale) | Plant response rating, Giant foxtail (giant foxtail; [6]) | Plant response rating, Giant foxtail (giant foxtail; [7]) | Giant foxtail plant response rating (giant foxtail; [16])
2: Plant response rating, Morningglory (morningglory; [6]) | Plant response rating, Morningglory (morningglory; [7])
5: Morningglory plant response rating (morningglory; [16]) | Plant response rating, Barley (winter) (winter barley; [14])
100: Plant response rating, Goosegrass (goosegrass; [13]) | Plant response rating, Goosegrass (goosegrass; Rate 250 g/ha) | Plant response rating, Alexandergrass (Alexandergrass; Rate 250 g/ha)
30: Plant response rating, Goosegrass (goosegrass; [10]) | Plant response rating, Wheat (winter) (winter wheat [1]; Rate 250 g/ha, 0 to 100 scale)
75: Plant response rating, Alexandergrass (Alexandergrass; [12])
9: Giant foxtail plant response rating (giant foxtail; [5])
0: Cocklebur plant response rating (cocklebur; [3]) | Cocklebur plant response rating (cocklebur; [4]) | Cocklebur plant response rating (cocklebur; [5]) | Plant response rating, Cocklebur (cocklebur; [6]) | Plant response rating, Cocklebur (cocklebur; [7]) | Cocklebur plant response rating (cocklebur; [8]) | Cocklebur plant response rating (cocklebur; [9]) | Plant response rating, Wheat (winter) (winter wheat [1]; [14]) | Plant response rating, Purple nutsedge (purple nutsedge; [10]) | Plant response rating, Purple nutsedge (purple nutsedge; [11]) | Purple nutsedge plant response rating (purple nutsedge; [12]) | Purple nutsedge plant response rating (purple nutsedge; [13]) | Plant response rating, Purple nutsedge (purple nutsedge; Rate 250 g/ha) | Plant response rating, Alexandergrass (Alexandergrass; [10]) | Morningglory plant response rating (morningglory; [5]) | Plant response rating, Tall Mallow (tall mallow; [10]) | Plant response rating, Tall Mallow (tall mallow; [11]) | Tall Mallow plant response rating (tall mallow; [12]) | Tall Mallow plant response rating (tall mallow; [13]) | Plant response rating, Tall Mallow (tall mallow; Rate 250 g/ha) | Barnyardgrass plant response rating (bamyardgrass; Rate 250 g/ha, headed Pre-emergence (flood test species), scale 0 to 10 (0 no effect, 10 complete control)) | Plant response rating, Barnyardgrass (bamyardgrass; Rate 500 g/ha, headed Pre-emergence (flood test species), scale 0 to 10 (0 no effect, 10 complete control)) | Barnyardgrass plant response rating (bamyardgrass; Rate 1000 g/ha, Pre-emergence (as headed), scale 0 to 10) | Barnyardgrass plant response rating (bamyardgrass; Rate 2000 g/ha, Pre-emergence (as headed), scale 0 to 10, 0 no effect, 10 complete control)
35: Plant response rating, I. Ryegrass (Italian ryegrass; [15])
98: Plant response rating, Goosegrass (goosegrass; [12]) | Plant response rating, Alexandergrass (Alexandergrass; [13])
8: Morningglory plant response rating (morningglory; [9]) | Giant foxtail plant response rating (giant foxtail; [3]) | Giant foxtail plant response rating (giant foxtail; [4]) | Giant foxtail plant response rating (giant foxtail; [8]) | Giant foxtail plant response rating (giant foxtail; [9])
3: Morningglory plant response rating (morningglory; [8])
50: Plant response rating, Blackgrass (blackgrass; Rate 250 g/ha, 0 to 100 scale) | Plant response rating, Green foxtail (green foxtail; [15]) | Plant response rating, Alexandergrass (Alexandergrass; [11])
20: Plant response rating, Blackgrass (blackgrass; [14]) | Plant response rating, Wheat (winter) (winter wheat [1]; [15]) | Plant response rating, Wild oat (wild oat; [14]) | Plant response rating, Wheat (winter) (winter wheat [2]; Rate 250 g/ha, 0 to 100 scale (0 no effect, 100 complete control))
